Results reported in patent publication EP2402030A1, “Linear IgE peptide epitopes of celery allergen api 1” (Charité Universitätsmedizin Berlin, priority 2010, dated 2012).

Test system: human IgE antibodies
Assay: Human IgE antibody binding to SPOT-synthesized 12-meric Api g 1.0101 peptide arrays on N-CAPE cellulose membranes, probed with sera, HRP-labeled anti-human IgE, chemiluminescence
Conditions: for IgE binding in sera of healthy controls: sera of 17 healthy subjects; for IgE binding in sera of healthy controls / celery allergic individuals responding to the peptide (positive IgE antibody binding spot) / recognition by sera of celery allergic patients: diluted 1:5; for number of celery allergic patients whose sera IgE antibodies bind the sequence / celery allergic individuals responding to the peptide (positive IgE antibody binding spot) / recognition by sera of celery allergic patients: sera of 21 celery allergic patients; for celery allergic individuals responding to the peptide (positive IgE antibody binding spot): positive if SInorm above the membrane's cut off value
Source text: The protein sequence of the major allergen in celery Api g 1.0101 (UniprotKB/Swissprot entry P49372) was dissected into sets of overlapping peptides (pepscan). Subsequently, these sequences were synthesized as peptide arrays on cellulose membranes according to SPOT technology. A highly specific secondary anti-human IgE antibody with minimum cross-reactivity towards cellulose membrane-bound peptides was employed.
Synthetic arrays were probed with sera randomly chosen from a well described cohort of subjects, including 21 patients with a defined allergic reaction to celery and 17 healthy individuals. Captured human IgE antibodies were detected by a HRP-labeled secondary antibody and binding was visualized by chemiluminescence.
The optimal conditions for screening the sera of 21 celery allergic patients and 17 healthy controls were as follows: (i) replica of a 12-meric pepscan with a shift of three amino acids covering the Api g 1.0101 sequence synthesized on high-loaded N-CAPE membranes (640 nmol/cm2 - 760 nmol/cm2); (ii) prior to treatment with sera, membranes were blocked with the Sigma-Genosys blocking buffer for 2 h at room temperature; (iii) arrays were probed for 16 h at 4°C with diluted sera (1:5) for IgE antibody binding; (iv) the captured human IgE antibodies were detected with the HRP-labeled anti-human IgE antibody (A 9667, Sigma-Aldrich) and visualized by chemiluminescence; (v) spot signal intensities were measured on a LumiImager and processed with the LumiAnalyst software. To check the reproducibility of our screening procedure, three different peptide arrays were incubated and evaluated for each person (allergic and healthy).
Sera binding patterns could be reproduced in repeated incubation experiments. Although inter-membrane absolute spot signal intensities differed, the relative differences between spot signal intensities were nearly the same. This enabled comparison of spot signal intensities from different membranes by applying an additional normalization procedure. We defined an IgE antibody binding spot as positive if its normalized signal intensity (SInorm) was higher than the calculated cut off value of the appropriate membrane.
Human IgE antibody binding studies: The spotted peptide arrays were prewashed with ethanol (1 × 10 min), washed with Tris-buffered saline (TBS), pH 8.0 (3 × 10 min), and blocked for 2 h at room temperature with blocking buffer. The membranes were incubated with the patients' sera (dilution 1:5) in blocking buffer overnight at 4°C, washed with TBS, followed by a second incubation with anti-human IgE antibody (ε-chain specific) conjugated with horse radish peroxidase (HRP) (A 9667, Sigma-Aldrich, St. Louis, USA) in blocking buffer for 2 h at room temperature. To remove excess antibody the membrane was washed with TBS (3x10 min). Detection was performed with Uptilight HRP blot chemiluminescent substrate (Uptima, Interchim, Montiuçon Cedex, France) with an exposure time of 2 min. The signal intensities were recorded as Biomedical Light Units (BLU) by a Lumi Imager™ (Boehringer Mannheim GmbH, Mannheim, Germany) using the LumiAnalyst software.
Measurement of spot signal intensities: Analysis and measurement of spot signal intensities were executed with the LumiAnalyst software, version 3.1 (Boehringer Mannheim GmbH, Mannheim, Germany). The spot signal was calculated from a circular region around the spot center detected on the image. To guarantee uniform spot signal assessment, and reduce signal variations caused by the background, we choose the background correction method in the LumiAnalyst software. This method allows local background correction when calculating the BLU of each spot. The background values of each spot were determined from BLU values around the spot with a safety margin and normalized to the area of the spot. Comparing replicas of several membranes, incubated under identical conditions, we found signal intensity deviations of a factor of 11. […]

Row | Sequence | celery allergic individuals responding to the peptide (positive IgE antibody binding spot) | IgE binding in sera of healthy controls | number of celery allergic patients whose sera IgE antibodies bind the sequence | other results
1 | VLVPTADGGSIC [peptide 35, 12-meric peptide of Api g 1.0101] | 100% | not reacting with any sera IgE antibody from healthy subjects | at least six | spot signal intensity (average spot signal intensity, Fig. 3): highest measured spot signal intensity; IgE binding in sera of healthy controls (listed as VLVPTADGGSIC): no binding; recognition by sera of celery allergic patients: recognized by the sera from all the celery allergic patients; recognition by sera of celery allergic patients (listed as VLVPTADGGSIC): recognized by all sera of celery allergic patients
2 | GGPITTMTLRID [compound 21, 12-meric peptide of Api g 1.0101] | 29% |  |  | 
3 | IITLPDGGPITT [compound 19, 12-meric peptide of Api g 1.0101] | 29% |  |  | 
4 | GDGGPGTLKIIT [compound 16, 12-meric peptide of Api g 1.0101] | 38% |  |  | 

The next lines start with results.

Row | celery allergic individuals responding to the peptide (positive IgE antibody binding spot) | Sequence | IgE binding in sera of healthy controls | number of celery allergic patients whose sera IgE antibodies bind the sequence | other results
5 | 29% | NHVVLVPTADGG [peptide 34, 12-meric peptide located in the C-terminal region of Api g 1.0101] | not reacting with any sera IgE antibody from healthy subjects | at least six | 
6 | 43% | PTADGGSICKTT [compound 36, 12-meric peptide of Api g 1.0101] |  |  | 
7 | 38% | IFQGFVIDVDTV [peptide 7, 12-meric peptide of Api g 1.0101] | not reacting with any sera IgE antibody from healthy subjects | at least six | 
